Activity calls are given as the source filed them.
Columns and labels:
Format in all cases: functional
[1] = biological target: T1, Caspase-3 (Homo sapiens, UniProt P42574);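 also: Dose-response selectivity test against caspase-3 for candidate inhibitors of sentrin-specific proteases (SENPs)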
T1 sequence (P42574 whole entry): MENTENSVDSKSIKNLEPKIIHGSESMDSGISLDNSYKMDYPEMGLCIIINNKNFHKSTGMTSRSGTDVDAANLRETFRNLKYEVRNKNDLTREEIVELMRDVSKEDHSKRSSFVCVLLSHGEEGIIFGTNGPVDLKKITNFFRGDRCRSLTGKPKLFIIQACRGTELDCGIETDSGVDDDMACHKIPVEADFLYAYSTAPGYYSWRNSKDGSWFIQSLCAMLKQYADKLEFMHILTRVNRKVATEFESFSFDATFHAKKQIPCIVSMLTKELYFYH

[2] = biological target: T2, Orexin/Hypocretin receptor type 1 (Homo sapiens, UniProt O43613); assay: Homogeneous Time Resolved Fluorescence (HTRF)-based cell-based high throughput dose response assay for antagonists of the orexin 1 receptor (OX1R; HCRTR1). [Related pubchem assays (depositor defined):AID434989, AID435008, AID463079, AID485270, AID492963, AID492964, AID492965, AID493232, AID504717, AID504718]
T2 sequence (O43613 whole entry): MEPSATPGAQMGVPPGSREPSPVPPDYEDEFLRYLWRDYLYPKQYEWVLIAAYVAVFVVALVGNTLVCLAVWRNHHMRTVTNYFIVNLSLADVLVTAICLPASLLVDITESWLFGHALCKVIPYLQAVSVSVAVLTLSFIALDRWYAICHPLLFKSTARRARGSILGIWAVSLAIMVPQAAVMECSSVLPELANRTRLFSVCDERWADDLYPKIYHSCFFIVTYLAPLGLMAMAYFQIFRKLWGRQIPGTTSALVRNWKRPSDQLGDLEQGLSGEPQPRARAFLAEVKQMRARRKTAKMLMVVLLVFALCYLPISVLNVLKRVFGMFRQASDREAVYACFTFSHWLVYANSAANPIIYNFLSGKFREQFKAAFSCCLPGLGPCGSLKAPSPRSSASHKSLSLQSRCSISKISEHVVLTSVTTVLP

[3] = biological target: T2, Orexin/Hypocretin receptor type 1; assay: Fluorescence-based cell-based high throughput dose response assay for antagonists of the orexin 1 receptor (OX1R; HCRTR1). [Related pubchem assays (depositor defined):AID434989, AID435008, AID463079, AID485270, AID492963, AID492964, AID492965, AID493232, AID504717, AID504718]
[4] = biological target: T3, Orexin receptor type 2 (Homo sapiens, UniProt O43614); assay: Counterscreen assay for antagonists of the orexin 1 receptor (OX1R; HCRTR1): Fluorescence-based cell-based dose response assay for antagonists of the orexin 2 receptor (OX2R; HCRTR2), run by assay provider.
T3 sequence (O43614 whole entry): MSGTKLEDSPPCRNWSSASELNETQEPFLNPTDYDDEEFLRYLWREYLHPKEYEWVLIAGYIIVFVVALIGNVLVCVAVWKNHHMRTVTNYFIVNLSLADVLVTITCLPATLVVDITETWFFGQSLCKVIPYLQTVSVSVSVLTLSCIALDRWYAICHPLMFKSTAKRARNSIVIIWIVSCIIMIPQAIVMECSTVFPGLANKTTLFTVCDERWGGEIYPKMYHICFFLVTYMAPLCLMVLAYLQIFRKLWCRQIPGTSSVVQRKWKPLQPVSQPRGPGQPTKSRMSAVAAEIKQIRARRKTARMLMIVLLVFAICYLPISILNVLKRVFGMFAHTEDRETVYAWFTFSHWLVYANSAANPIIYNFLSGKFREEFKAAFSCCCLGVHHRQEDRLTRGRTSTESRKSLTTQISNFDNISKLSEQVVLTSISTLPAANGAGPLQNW

[5] = biological target: Protein kinase C theta type (Homo sapiens, UniProt Q04759); assay: Navigating the Kinome. Panel member name: PRKCQ
[6] = biological target: Ribosomal protein S6 kinase alpha-3 (Homo sapiens, UniProt P51812);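 also: measured within a kinome-wide profiling panel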
[7] = biological target: Dual specificity protein kinase CLK2 (Homo sapiens, UniProt P49760)
[8] = biological target: Dual specificity mitogen-activated protein kinase kinase 1 (Homo sapiens, UniProt Q02750); assay: Navigating the Kinome. Panel member name: MAP2K1
[9] = biological target: Tyrosine-protein kinase JAK2 (Homo sapiens, UniProt O60674);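 also: JAK2 tested as one member of a kinase panel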
[10] = biological target: ALK tyrosine kinase receptor (Homo sapiens, UniProt Q9UM73);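 also: ALK tested as one member of a kinase panel screen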
[11] = biological target: Tyrosine-protein kinase receptor TYRO3 (Homo sapiens, UniProt Q06418);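 also: TYRO3 value obtained as one member of a kinome-wide profiling panel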
[12] = biological target: Serine/threonine-protein kinase pim-1 (Homo sapiens, UniProt P11309)
[13] = biological target: Tyrosine-protein kinase BTK (Homo sapiens, UniProt Q06187)
[14] = biological target: Serine/threonine-protein kinase TAO1 (Homo sapiens, UniProt Q7L7X3)
[15] = biological target: High affinity nerve growth factor receptor (Homo sapiens, UniProt P04629);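 also: NTRK1 tested as one member of a kinome-wide profiling panel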
[16] = biological target: Glycogen synthase kinase-3 alpha (Homo sapiens, UniProt P49840);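 also: GSK3A result taken from a broad kinome-wide kinase panel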
[17] = biological target: Receptor-type tyrosine-protein kinase FLT3 (Homo sapiens, UniProt P36888);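 also: FLT3 was tested as one member of a kinome-wide kinase panel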
[18] = biological target: Serine/threonine-protein kinase Chk1 (Homo sapiens, UniProt O14757);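 also: measured as one member of a kinome-wide kinase profiling panel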
[19] = biological target: cAMP-dependent protein kinase catalytic subunit PRKX (Homo sapiens, UniProt P51817)
[20] = biological target: Platelet-derived growth factor receptor alpha (Homo sapiens, UniProt P16234); assay: Navigating the Kinome. Panel member name: PDGFRA
[21] = biological target: Leucine-rich repeat serine/threonine-protein kinase 2 (Homo sapiens, UniProt Q5S007);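 also: value from a broad kinome-wide panel profiling study in which LRRK2 was one of the kinases tested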
[22] = biological target: Rho-associated protein kinase 1 (Homo sapiens, UniProt Q13464);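 also: measured within a broad kinome-wide panel profiling many kinases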
[23] = biological target: Serine/threonine-protein kinase Nek2 (Homo sapiens, UniProt P51955)
[24] = biological target: Cyclin-dependent kinase 7 (Homo sapiens, UniProt P50613);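 also: value comes from a kinome-wide kinase profiling panel in which CDK7 is one member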
[25] = biological target: Dual specificity mitogen-activated protein kinase kinase 2 (Homo sapiens, UniProt P36507); assay: Navigating the Kinome. Panel member name: MAP2K2
[26] = biological target: Inhibitor of nuclear factor kappa-B kinase subunit epsilon (Homo sapiens, UniProt Q14164); assay: Navigating the Kinome. Panel member name: IKBKE
[27] = biological target: Mitogen-activated protein kinase 14 (Homo sapiens, UniProt Q16539);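 also: part of a kinome-wide panel, MAPK14 entry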
Chain of Mitogen-activated protein kinase 14 (Q16539 whole entry): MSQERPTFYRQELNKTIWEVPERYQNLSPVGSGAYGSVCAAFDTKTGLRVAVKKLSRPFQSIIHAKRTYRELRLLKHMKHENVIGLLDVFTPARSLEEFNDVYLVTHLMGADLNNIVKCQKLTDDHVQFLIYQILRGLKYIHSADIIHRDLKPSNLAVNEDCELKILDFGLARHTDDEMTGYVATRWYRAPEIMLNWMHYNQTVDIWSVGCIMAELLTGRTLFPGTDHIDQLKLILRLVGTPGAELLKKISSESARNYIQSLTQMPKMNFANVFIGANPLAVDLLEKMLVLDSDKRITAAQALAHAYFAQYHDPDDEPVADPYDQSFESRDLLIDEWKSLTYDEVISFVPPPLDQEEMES

Chain of Dual specificity mitogen-activated protein kinase kinase 2 (P36507 whole entry): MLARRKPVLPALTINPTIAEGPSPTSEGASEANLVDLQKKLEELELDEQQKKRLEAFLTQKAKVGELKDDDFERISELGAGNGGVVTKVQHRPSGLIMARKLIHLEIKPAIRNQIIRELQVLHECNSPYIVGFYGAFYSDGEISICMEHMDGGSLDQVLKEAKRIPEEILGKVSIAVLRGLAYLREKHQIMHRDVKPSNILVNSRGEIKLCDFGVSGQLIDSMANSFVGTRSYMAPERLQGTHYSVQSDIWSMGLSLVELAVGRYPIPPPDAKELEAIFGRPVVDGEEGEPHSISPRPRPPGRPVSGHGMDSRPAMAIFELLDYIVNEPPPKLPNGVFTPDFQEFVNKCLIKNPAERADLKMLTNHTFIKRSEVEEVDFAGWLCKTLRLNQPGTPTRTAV
Chain of Rho-associated protein kinase 1 (Q13464 whole entry): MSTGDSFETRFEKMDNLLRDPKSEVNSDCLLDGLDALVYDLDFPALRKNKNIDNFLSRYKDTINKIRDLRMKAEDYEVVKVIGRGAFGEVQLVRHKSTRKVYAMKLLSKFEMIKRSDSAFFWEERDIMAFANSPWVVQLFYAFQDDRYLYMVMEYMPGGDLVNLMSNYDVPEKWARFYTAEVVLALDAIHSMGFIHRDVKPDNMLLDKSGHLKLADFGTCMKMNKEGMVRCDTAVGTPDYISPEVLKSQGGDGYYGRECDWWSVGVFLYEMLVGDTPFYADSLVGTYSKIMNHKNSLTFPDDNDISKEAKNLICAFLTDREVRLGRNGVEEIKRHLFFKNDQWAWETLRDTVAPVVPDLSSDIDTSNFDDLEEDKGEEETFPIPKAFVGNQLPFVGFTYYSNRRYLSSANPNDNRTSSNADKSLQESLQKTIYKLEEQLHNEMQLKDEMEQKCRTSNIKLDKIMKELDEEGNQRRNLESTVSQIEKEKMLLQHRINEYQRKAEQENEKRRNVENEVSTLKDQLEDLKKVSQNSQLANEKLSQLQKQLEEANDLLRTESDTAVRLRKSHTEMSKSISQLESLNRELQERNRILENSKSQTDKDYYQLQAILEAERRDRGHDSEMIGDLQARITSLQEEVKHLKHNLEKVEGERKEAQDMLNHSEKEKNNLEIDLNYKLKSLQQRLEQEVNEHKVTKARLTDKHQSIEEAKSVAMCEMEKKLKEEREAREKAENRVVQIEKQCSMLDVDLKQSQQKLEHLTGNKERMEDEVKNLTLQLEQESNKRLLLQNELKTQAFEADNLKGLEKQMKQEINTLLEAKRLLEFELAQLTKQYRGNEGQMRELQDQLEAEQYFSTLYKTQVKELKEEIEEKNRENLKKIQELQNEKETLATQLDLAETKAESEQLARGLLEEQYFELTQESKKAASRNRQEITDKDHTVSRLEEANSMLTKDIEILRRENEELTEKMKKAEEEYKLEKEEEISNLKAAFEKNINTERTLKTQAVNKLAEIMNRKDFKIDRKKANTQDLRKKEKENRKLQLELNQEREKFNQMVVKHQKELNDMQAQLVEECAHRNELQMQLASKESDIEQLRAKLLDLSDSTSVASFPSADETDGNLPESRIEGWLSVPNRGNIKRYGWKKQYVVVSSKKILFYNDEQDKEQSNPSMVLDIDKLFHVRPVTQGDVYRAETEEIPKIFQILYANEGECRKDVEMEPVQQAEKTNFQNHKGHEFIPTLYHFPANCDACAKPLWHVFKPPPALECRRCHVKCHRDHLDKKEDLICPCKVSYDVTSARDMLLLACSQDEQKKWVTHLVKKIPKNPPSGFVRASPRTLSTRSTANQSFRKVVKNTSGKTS
Chain of Platelet-derived growth factor receptor alpha (P16234 whole entry): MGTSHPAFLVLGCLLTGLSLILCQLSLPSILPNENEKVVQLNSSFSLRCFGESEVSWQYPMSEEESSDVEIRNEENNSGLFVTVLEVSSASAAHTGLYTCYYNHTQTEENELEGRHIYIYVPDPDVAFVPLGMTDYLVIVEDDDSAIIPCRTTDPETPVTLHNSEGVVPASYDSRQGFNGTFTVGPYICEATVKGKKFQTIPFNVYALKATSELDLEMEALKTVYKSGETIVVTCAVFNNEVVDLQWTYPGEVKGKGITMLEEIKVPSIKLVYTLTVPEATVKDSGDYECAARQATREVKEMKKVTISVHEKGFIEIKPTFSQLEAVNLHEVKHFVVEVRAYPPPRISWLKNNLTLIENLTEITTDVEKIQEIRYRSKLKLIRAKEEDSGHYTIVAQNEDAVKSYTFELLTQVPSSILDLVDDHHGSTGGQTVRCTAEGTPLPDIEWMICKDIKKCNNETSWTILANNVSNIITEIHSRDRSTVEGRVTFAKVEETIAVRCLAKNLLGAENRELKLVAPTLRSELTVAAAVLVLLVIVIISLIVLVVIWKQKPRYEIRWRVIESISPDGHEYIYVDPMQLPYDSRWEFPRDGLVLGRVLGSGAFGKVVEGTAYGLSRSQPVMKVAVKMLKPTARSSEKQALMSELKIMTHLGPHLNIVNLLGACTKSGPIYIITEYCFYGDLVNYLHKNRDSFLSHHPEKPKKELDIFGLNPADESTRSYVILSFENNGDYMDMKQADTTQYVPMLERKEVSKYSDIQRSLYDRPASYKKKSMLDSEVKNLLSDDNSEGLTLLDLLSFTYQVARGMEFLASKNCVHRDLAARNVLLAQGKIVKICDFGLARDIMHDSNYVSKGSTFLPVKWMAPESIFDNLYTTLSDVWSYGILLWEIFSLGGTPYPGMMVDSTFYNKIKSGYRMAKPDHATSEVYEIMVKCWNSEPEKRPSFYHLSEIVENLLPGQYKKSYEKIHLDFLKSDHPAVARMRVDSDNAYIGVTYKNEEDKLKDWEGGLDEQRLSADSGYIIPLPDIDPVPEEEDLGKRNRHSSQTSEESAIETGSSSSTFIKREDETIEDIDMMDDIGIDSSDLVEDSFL
Chain of Ribosomal protein S6 kinase alpha-3 (P51812 whole entry): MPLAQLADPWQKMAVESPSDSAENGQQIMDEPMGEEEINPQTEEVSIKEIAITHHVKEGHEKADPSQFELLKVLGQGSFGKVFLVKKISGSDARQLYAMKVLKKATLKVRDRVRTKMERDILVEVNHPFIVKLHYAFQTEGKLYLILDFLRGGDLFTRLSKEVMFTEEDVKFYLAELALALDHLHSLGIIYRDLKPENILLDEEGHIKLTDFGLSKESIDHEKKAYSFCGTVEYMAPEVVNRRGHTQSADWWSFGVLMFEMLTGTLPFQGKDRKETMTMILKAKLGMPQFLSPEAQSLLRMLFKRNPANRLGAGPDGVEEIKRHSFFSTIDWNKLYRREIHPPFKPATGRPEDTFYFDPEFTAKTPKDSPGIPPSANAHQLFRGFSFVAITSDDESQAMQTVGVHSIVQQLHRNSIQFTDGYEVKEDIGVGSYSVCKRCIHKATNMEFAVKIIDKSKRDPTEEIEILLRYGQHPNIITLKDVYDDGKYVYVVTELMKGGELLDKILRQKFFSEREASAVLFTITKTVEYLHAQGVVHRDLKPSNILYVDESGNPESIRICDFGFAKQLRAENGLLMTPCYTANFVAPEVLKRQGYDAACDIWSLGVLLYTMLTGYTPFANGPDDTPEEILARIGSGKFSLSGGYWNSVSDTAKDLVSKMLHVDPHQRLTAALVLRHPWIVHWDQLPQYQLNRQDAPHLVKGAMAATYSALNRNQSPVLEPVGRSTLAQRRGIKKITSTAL
Chain of Cyclin-dependent kinase 7 (P50613 whole entry): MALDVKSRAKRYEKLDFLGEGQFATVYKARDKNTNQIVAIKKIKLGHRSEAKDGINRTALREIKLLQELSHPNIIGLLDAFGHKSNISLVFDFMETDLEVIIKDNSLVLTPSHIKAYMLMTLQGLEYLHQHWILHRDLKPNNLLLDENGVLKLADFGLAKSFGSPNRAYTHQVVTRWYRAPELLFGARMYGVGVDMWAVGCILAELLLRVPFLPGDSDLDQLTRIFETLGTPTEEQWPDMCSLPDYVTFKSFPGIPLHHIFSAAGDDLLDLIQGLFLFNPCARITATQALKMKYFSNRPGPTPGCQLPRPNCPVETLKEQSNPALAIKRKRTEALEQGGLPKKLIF
Chain of Tyrosine-protein kinase BTK (Q06187 whole entry): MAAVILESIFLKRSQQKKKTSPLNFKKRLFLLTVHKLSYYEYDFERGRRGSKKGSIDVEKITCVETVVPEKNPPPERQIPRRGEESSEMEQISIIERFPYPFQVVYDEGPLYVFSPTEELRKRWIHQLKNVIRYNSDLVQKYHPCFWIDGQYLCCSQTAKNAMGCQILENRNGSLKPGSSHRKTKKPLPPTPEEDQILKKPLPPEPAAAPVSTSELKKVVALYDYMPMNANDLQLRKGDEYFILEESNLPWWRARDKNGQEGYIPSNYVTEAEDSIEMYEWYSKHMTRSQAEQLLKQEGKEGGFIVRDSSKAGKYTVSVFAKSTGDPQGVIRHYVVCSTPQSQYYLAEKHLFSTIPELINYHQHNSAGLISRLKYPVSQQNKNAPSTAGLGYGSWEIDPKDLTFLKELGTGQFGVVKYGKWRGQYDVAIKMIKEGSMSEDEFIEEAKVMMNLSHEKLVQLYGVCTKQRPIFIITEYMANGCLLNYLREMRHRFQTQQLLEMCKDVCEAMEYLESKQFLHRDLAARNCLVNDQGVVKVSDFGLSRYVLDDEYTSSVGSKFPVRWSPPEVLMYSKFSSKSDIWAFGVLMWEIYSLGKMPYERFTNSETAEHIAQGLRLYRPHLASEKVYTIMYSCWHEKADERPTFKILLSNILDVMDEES

`Cc1ccnc2ccc(-c3nc4ccccc4o3)cc12` was tested, and the IC50 [1] was 5.31 µM (active), the IC50 [2] was 1.1 µM (active) and the IC50 [3] was 4.26 µM (active). The IC50 [4] was > 88.8 µM (inactive).

With `O=C(NCCc1cccs1)N1CC=C(c2c[nH]c3ncccc23)CC1` the Ki [5] was > 2.51 µM (inactive), the Ki [6] was > 3.98 µM (inactive) and the Ki [7] was 0.501 µM (active). For the same compound, the Ki [8] was 2.51 µM (active), the Ki [9] was > 2.51 µM (inactive) and the Ki [10] was > 6.31 µM (inactive). The Ki [11] was > 3.16 µM (inactive), the Ki [12] was 3.98 µM (active) and the Ki [13] was > 6.31 µM (inactive). The Ki [14] was > 6.31 µM (inactive), the Ki [15] was > 3.16 µM (inactive) and the Ki [16] was > 3.98 µM (inactive). For the same compound, the Ki [17] was > 3.16 µM (inactive), the Ki [18] was 2 µM (active) and the Ki [19] was 0.158 µM (active). For the same compound, the Ki [20] was > 2.51 µM (inactive), the Ki [21] was 0.631 µM (active) and the Ki [22] was 0.0631 µM (active). The Ki [23] was > 3.16 µM (inactive), the Ki [24] was 1 µM (active) and the Ki [25] was 3.16 µM (active). The Ki [26] was > 3.16 µM (inactive) and the Ki [27] was > 3.98 µM (inactive).
